This note sets out measurements from US4997818A, “Therapeutic method for selectively treating terminal deoxynucleotidyl transferase-positive neoplastic leukemias and lymphomas” (The University Hospital, priority 1989, dated 1991).

The subject of one assay is L1210. Put plainly: Growth inhibition, viable cell count by trypan blue exclusion. Type of assay: cell-based. The conditions noted are these: Mus musculus; L1210, TdT negative, 48 hour continuous exposure. Here is the method: (§1) Each cell line was utilized in exponential growth phase. For test purposes, cells were seeded at […] cells/ml in T25 flasks containing 4 ml of culture medium. Cell counts were made using a hemocytometer. Cell viability was determined using the tryptan blue dye exclusion method. The degree of growth inhibition was calculated by comparison with untreated controls.
(§2) Initially, the effect of a 48 hour continuous exposure to 250 uM and 500 uM of ddA upon four TdT-positive and three TdT-negative cell lines was evaluated.
(§3) The growth inhibition data of Table V is defined as the ratio of viable cells in the ddA exposed cultures in comparison to control cultures. Each determination reflects the mean of triplicate flasks. It is noted that at 250 uM of ddA, there was marked growth inhibition (30-80%) in all four TdT-positive cell lines whereas there was very little effect among the TdT-negative cells (0-15% growth inhibition). At 500 uM of ddA, the cytotoxicity in the TdT-positive lines was further increased (92-99% growth inhibition). At this concentration level, 2 of the 3 TdT-negative lines also show measureable growth inhibition (40-50%).

The subject of a further assay is TdT-negative cell lines. Kind of assay: Growth inhibition, summary over TdT-negative cell lines. Type of assay: cell-based. Conditions: 48 hour. The procedure:
as §1, §2, §3

The next assay deals with ML3. Kind of assay: Growth inhibition, viable cell count by trypan blue exclusion. Conditions: Homo sapiens; ML3, TdT negative, 48 hour continuous exposure. It counts as cell-based. Here is the method: as §1, §2, §3
(§4) As a result, another series of experiments was conducted in which the non-selective purinogenic cytotoxicity was reduced. In this experimental series, a variety of different cell lines were pre-incubated for 30 minutes with the adenosine deaminase inhibitor, coformycin (CF). This CF exposure was then followed by a continuous 48 hour exposure to 250 uM ddA with suitable controls. Growth inhibition was defined as the ratio of viable cells in the CF/ddA exposed cell cultures in comparison to control cultures. Each determination reflects the mean of quadruplicate flasks. The results are provided by FIG. 3 and Table VI respectively.

A further assay deals with NALM-6. The assay is described as above. The conditions noted are these: Homo sapiens; NALM-6, TdT positive, 48 hour continuous exposure. Type of assay: cell-based. The procedure: as §1, §2, §3, §4
The test system of another assay is HPB-ALL. The assay is described as above. Conditions: Homo sapiens, HPBALL, TdT positive, 48 hour continuous exposure. Type of assay: cell-based. The procedure:
as §1, §2, §3, §4

A further assay deals with 8392. The description is as above. Type of assay: cell-based. Conditions: Homo sapiens; 8392, TdT negative, 48 hour continuous exposure. The procedure: as §1, §2, §3, §4
For the next assay, the system named is MOLT-4. The assay is described as above. Type of assay: cell-based. The conditions noted are these: Homo sapiens; MOLT-4, TdT positive, 48 hour continuous exposure. The procedure:
as §1, §2, §3, §4

A further assay has as its system TdT-positive cell lines. Put plainly: Growth inhibition, summary over TdT-positive cell lines. Type of assay: cell-based. The conditions noted are these: 48 hour. Here is the method: as §1, §2, §3
(§5) As a result, another series of experiments was conducted in which the non-selective purinogenic cytotoxicity was reduced. […]

In another assay the test system is 298-26. Put plainly: Growth inhibition, viable cell count by trypan blue exclusion. Type of assay: cell-based, Murine. Conditions: Mus musculus; 298-26, TdT positive, 48 hour continuous exposure. The procedure:
as §1, §2, §3, §5

Assay [1] deals with T1, terminal deoxynucleotidyl transferase (TdT) (Bos taurus, UniProt P06526).
T1 construct: purchased DuPont/NEN Products, Boston, Massachusetts; host or cells: calf thymus
Kind of assay: TdT enzyme assay (3H-dGTP incorporation). Type of assay: biochemical, calf. Here is the method: (§6) Initially, the effect of various ddNTPs on TdT and DNA polymerase alpha was evaluated. DNA polymerase alpha, purified from calf thymus according to Kornberg [DNA Replication, W.H. Freeman and Company, 1980, p 206]and Wahl et al. [Biochemistry 23:1895 (1984)] was purchased from Pharmacia, Inc. (Piscataway, N.J.). TdT, purified from calf thymus, was purchased from DuPont/NEN Products, Boston, Massachusetts). Enzyme assays were conducted at 37 C. under conditions established to be optimal for each assay. For DNA polymeraseα, 0.1 ml of reaction mixture contained: 0.05 M tris-HCl (pH 8.3); 4 mM dithiothreitol; 4 mM MgCl; 10 ug poly(dAT); 0.05 mM ^3 H-dATP; 0.05 mM dTTP; and 0.05 units of enzyme. For TdT assays, 0.1 ml of standard reaction mixture contained: 0.05 M tris-HCl (pH 8.3); 2 mM dithiothreitol; 0.6 mM MnCl; 20 ug oligo(dA) 50; 0.1 mM ^3 H-dGTP; and 0.5 units of TdT.
For these studies, ddNTPs were dissolved in deionized distilled water and added to the respective reaction mixtures at time zero to give the effective final concentrations. The degree of reaction or inhibition was calculated from simultaneous control reactions. The mode of inhibition and inhibition constants were determined using Linweaver-Burke and Dixon plots. Each of the respective reactions was stopped using 0.5 ml of cold (4 C) 0.1 M sodium pyrophosphate containing 1 mg/ml yeast RNA (hereinafter"NaPP") and precipitated with 0.5 ml of cold 25% trichloroacetic acid (hereinafter "TCA"). The precipitates centrifuged at 13,000×gravity in a microfuge for one minute; resolubilized in 0.2 ml of 0.3M NaOH; and then reprecipitated with NaPP and TCA. Following a second 0.3 M NaOH resolubilization, 10 ml of scintiverse II (Fisher Scientific Company, Fairlawn, N.J.) was added to each sample for counting in a Beckman LS3700 liquid scintillation counter.
(§7) It should be noted also that for certain TdT assays, a variety of different initiators were used in place of oligo (dA) 50. These included: activated DNA; 5'-^32 T-GTCCGTCTCTGCCTC-3' (15 MER synthesized on an automated synthesizer using standard phosphoramidite chemistry having a ^32 P-end labeled by a standard Maxam-Gilbert reaction); YEP-FG-2-plasmid DNA; oligo (dC) 18; oligo (dT) 18; and various ^3 H-substrates such as dCTP, dATP, and dTTP in place of ^3 H-dGTP. Reactions utilizing the 15 MER initiator contained either 5 mM MgCl2 or 1 mM CoCl2 in place of MnCl2.

The test system of a further assay is DNA polymerase alpha. Kind of assay: DNA polymerase alpha enzyme assay. It counts as biochemical, calf. Here is the method:
as §6
For these studies, ddNTPs were dissolved in deionized distilled water and added to the respective reaction mixtures at time zero to give the effective final concentrations. The degree of reaction or inhibition was calculated from simultaneous control reactions. The mode of inhibition and inhibition constants were determined using Linweaver-Burke and Dixon plots. […]

The target of assay [2] is T1, terminal deoxynucleotidyl transferase (TdT). Put plainly: TdT-catalyzed polymerization on 32P-labelled 15 MER initiator, autoradiograph (chain termination). It counts as biochemical, calf. The conditions noted are these: ddATP as substrate, MgCl2 or CoCl2.
Excerpt: as §7
It should be noted that the mechanism of inhibition by any of the ddNTPs upon TdT catalysis is by chain termination. […] A radiolabelled oligomer (^32 P-GTCCGTCTCTGCCTC-3') shown in Lane 1 was used as an initiator for TdT-catalyzed polymerization using: dATP (Lanes 2 and 4); or ddATP (Lanes 3 and 5 ) as substrates. Lanes 2 and 3 represent the reaction products generated in the presence of MgCl2 while Lanes 4 and 5 represent the reaction products generated in the presence of CoCl2 respectively. Each reaction product was electrophoresed on a 20% polyacrylamide gel under denaturing conditions (2.5 hours at 35 watts, 2800 volts). […] Thus, the effectiveness of chain termination by ddATP is clearly established.

The subject of assay [3] is fresh leukemia cell cultures. Kind of assay: Ex-vivo viability of fresh leukemia cells from patients (trypan blue). It counts as cell-based, human. Conditions: 30 uM CF alone, two instances. The text has this: Leukemic blast cells from bone marrow or peripheral blood were obtained from 12 patients; of these, six persons were diagnosed as afflicted with acute lymphatic leukemia; three persons were diagnosed as afflicted with acute myeloblastic leukemia; two persons were diagnosed as afflicted with blastic chronic myelogenous leukemia; and one person was diagnosed as having acute myelogenous leukemia, complicating multiple myeloma. These diagnoses were based upon standard clinical and laboratory criteria. In ten of these twelve patients, blast cells constituted more than 75% of the mononuclear cells. In the eleventh and twelfth patients, 32% and 42% of the mononuclear cells were blast cells.
The leukemic cells from each person were enriched on Ficoll-Hypaque medium; washed in phosphate-buffered saline without divalent cations; resuspended in RPMI-1640 medium containing 20% FCS; and then grown in RPMI-1640 media supplemented with 10% FCS. The TdT status of each cell sample was independently determined by conventional biochemical assay before culturing. […] The six TdT-positive cases all had acute lymphoblastic leukemia.
Experimentally, all twelve fresh leukemia cell cultures were continuously exposed ex-vivo to 250 uM of ddA and 30 uM of CF for 72 hours. Each was then individually evaluated for viability as determined by trytan blue staining. The empirical results are illustrated by FIG. 6. […]

T1 sequence (P06526 whole entry): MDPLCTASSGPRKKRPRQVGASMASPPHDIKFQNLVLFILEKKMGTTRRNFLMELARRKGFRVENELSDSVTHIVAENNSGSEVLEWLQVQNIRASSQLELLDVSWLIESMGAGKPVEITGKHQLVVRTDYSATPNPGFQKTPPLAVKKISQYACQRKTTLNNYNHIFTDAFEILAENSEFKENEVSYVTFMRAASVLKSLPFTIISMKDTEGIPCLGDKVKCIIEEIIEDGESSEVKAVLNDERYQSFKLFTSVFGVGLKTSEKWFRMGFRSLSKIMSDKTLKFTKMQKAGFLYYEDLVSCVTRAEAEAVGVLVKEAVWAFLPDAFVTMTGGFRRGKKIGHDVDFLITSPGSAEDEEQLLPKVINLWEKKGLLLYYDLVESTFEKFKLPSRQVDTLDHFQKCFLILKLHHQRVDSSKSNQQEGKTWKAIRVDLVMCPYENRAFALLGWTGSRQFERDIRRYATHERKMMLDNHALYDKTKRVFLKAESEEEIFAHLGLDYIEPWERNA

In the case of `Nc1ncnc2c1ncn2[C@H]1CC[C@@H](CO)O1` [ddA, dideoxyadenosine], the inhibition at 250 µM with L1210 was 15%; in the assay on TdT-negative cell lines (250 uM ddA, read-out: growth inhibition, range over TdT-negative cells), 0 to 15%; in the assay on ML3 it was 0%; in the assay on NALM-6 it was 30%; in the assay with HPB-ALL, 40%; in the assay with 8392, 0%. Further, the inhibition at 250 µM with MOLT-4 was 60%; in the assay with TdT-positive cell lines (250 uM ddA, read-out: growth inhibition, range over all four TdT-positive cell lines), 30 to 80%; in the assay on 298-26 it was 80%. The inhibition at 500 µM in the assay on L1210 is 50%; in the assay with TdT-negative cell lines (500 uM ddA, read-out: growth inhibition, 2 of the 3 TdT-negative lines), 40 to 50%; with ML3, 40%; in the assay with NALM-6, 95%; with HPB-ALL, 99%; in the assay with 8392, 0%. Besides, the inhibition at 500 µM in the assay with MOLT-4 is 92%; with TdT-positive cell lines (500 uM ddA, read-out: growth inhibition, range over TdT-positive lines), 92 to 99%; with 298-26, 99%.
The compound `Nc1nc2c(ncn2[C@H]2CC[C@@H](COP(=O)(O)OP(=O)(O)OP(=O)(O)O)O2)c(=O)[nH]1` [ddGTP, dideoxyguanosine triphosphate] yielded a 50% inhibitory concentration (IC50) in assay [1] of 18 µM.
With `Nc1ncnc2c1ncn2[C@H]1CC[C@@H](COP(=O)(O)OP(=O)(O)OP(=O)(O)O)O1` [ddATP, 2',3'-dideoxyadenosine triphosphate], in the assay with DNA polymerase alpha, the “effect on DNA polymerase alpha enzyme activity (FIG. 1)” value is on record as “does not recognize”. Besides, the “chain termination: residues added by TdT to 15 MER initiator (FIG. 2)” value in assay [2] is listed as “only one residue is added”. In addition, inhibition in assay [1] was half-maximal at 9 µM (IC50). Moreover, the “effect on TdT polymerization reaction (FIG. 1)” value in [1] (micromolar concentrations of ddATP) is “dramatically inhibits”.
On to `Cc1cn([C@H]2C[C@H](N=[N+]=[N-])[C@@H](CO[P@](=O)(O)O[P@](=O)(O)OP(=O)(O)O)O2)c(=O)[nH]c1=O` [AZTTP, 3'-azido thymidine triphosphate, reference compound], for which 133 µM corresponded to half-maximal inhibition in assay [1] (IC50).
On the same count and under the same terms, to `Cc1cn([C@H]2CC[C@@H](COP(=O)(O)OP(=O)(O)OP(=O)(O)O)O2)c(=O)[nH]c1=O` [ddTTP, 2',3'-dideoxythymidine triphosphate] belongs 47.2 µM; to `O=c1[nH]cnc2c1ncn2[C@H]1CC[C@@H](COP(=O)(O)OP(=O)(O)OP(=O)(O)O)O1` [ddITP, dideoxyinosine triphosphate], 20 µM.
On the same count and under the same terms, to `Nc1ccn([C@H]2CC[C@@H](COP(=O)(O)OP(=O)(O)OP(=O)(O)O)O2)c(=O)n1` [ddCTP, dideoxycytosine triphosphate] belongs 24.8 µM.
Turning to `OC[C@H]1O[C@@H](n2cnc3c2N=CNC[C@H]3O)[C@H](O)[C@@H]1O` [CF, coformycin], the “effect on cell viability” value in [3] is recorded as “no effect”.
